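These data come from cells grown in 96-well plates and exposed to compound for 48 hours at five concentrations. GI50: concentration for 50% inhibition of growth.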 The source made the active and inactive calls. No stated cut-off is given here; in the data, active = GI50 up to about 1.1 µM and inactive = higher.
Legend:
Test in all cases: DTP human tumour cell line panel, 48 h
A498 = test system: A498
SK-MEL-2 = test system: SK-MEL-2
MDA-MB-435 = test system: MDA-MB-435
SNB-75 = test system: SNB-75
EKVX = test system: EKVX
TK-10 = test system: TK-10
DU-145 = test system: DU-145
T47D = test system: T47D
SR = test system: SR
RPMI-8226 = test system: RPMI-8226
Malme-3M = test system: Malme-3M
MCF7 = test system: MCF7
NCI-H23 = test system: NCI-H23
Hs-578T = test system: Hs-578T
MDA-N = test system: MDA-N
NCI-H226 = test system: NCI-H226
NCI-H522 = test system: NCI-H522
786-0 = test system: 786-0
NCI/ADR-RES = test system: NCI/ADR-RES

## COc1ccc(-c2c(-c3ccccc3)c(C)nc3nc(SC)nc(SC)c23)cc1OC
A498
  GI50: 15.7 µM (inactive)
SK-MEL-2
  GI50: 17.1 µM (inactive)
MDA-MB-435
  GI50: 8.17 µM (inactive)
SNB-75
  GI50: 16.1 µM (inactive)
EKVX
  GI50: 15.6 µM (inactive)
TK-10
  GI50: 23.6 µM (inactive)
DU-145
  GI50: 15.5 µM (inactive)
T47D
  GI50: 13 µM (inactive)
SR
  GI50: 0.565 µM (active)
RPMI-8226
  GI50: 2.82 µM (inactive)
Malme-3M
  GI50: 10.1 µM (inactive)
MCF7
  GI50: 10.6 µM (inactive)
NCI-H23
  GI50: 28.8 µM (inactive)
Hs-578T
  GI50: 5.05 µM (inactive)
MDA-N
  GI50: 8.99 µM (inactive)
NCI-H226
  GI50: 17.3 µM (inactive)
NCI-H522
  GI50: 4.61 µM (inactive)

## COC(=O)[C@@H](NC1(c2ccccc2)c2ccccc2-c2ccccc21)[C@@H](C(=O)OC)N(NC(=O)OCc1ccccc1)C(=O)OCc1ccccc1.COC(=O)[C@@H](NC1(c2ccccc2)c2ccccc2-c2ccccc21)[C@H](C(=O)OC)N(NC(=O)OCc1ccccc1)C(=O)OCc1ccccc1
786-0
  GI50: > 100 µM (inactive)
NCI/ADR-RES
  GI50: > 100 µM (inactive)
A498
  GI50: > 100 µM (inactive)
SK-MEL-2
  GI50: > 100 µM (inactive)
MDA-MB-435
  GI50: > 100 µM (inactive)
EKVX
  GI50: 21.4 µM (inactive)
TK-10
  GI50: > 100 µM (inactive)
DU-145
  GI50: > 100 µM (inactive)
T47D
  GI50: > 100 µM (inactive)
SR
  GI50: > 100 µM (inactive)
RPMI-8226
  GI50: > 100 µM (inactive)
Malme-3M
  GI50: 27.4 µM (inactive)
MCF7
  GI50: > 100 µM (inactive)
NCI-H23
  GI50: > 100 µM (inactive)
Hs-578T
  GI50: > 100 µM (inactive)
MDA-N
  GI50: > 100 µM (inactive)
NCI-H522
  GI50: 29.2 µM (inactive)

## C=C(Nc1ccc([N+](=O)[O-])cc1[N+](=O)[O-])c1c/c(=N\NC(N)=S)c2ccccc2o1
786-0
  GI50: 66.8 µM (inactive)
NCI/ADR-RES
  GI50: 40.9 µM (inactive)
SK-MEL-2
  GI50: > 100 µM (inactive)
MDA-MB-435
  GI50: 81.5 µM (inactive)
SNB-75
  GI50: 74.8 µM (inactive)
EKVX
  GI50: 68.7 µM (inactive)
TK-10
  GI50: > 100 µM (inactive)
DU-145
  GI50: > 100 µM (inactive)
SR
  GI50: 16.9 µM (inactive)
MCF7
  GI50: 40.6 µM (inactive)
NCI-H23
  GI50: 81.8 µM (inactive)
Hs-578T
  GI50: > 100 µM (inactive)
MDA-N
  GI50: > 100 µM (inactive)
NCI-H226
  GI50: 28.2 µM (inactive)
NCI-H522
  GI50: > 100 µM (inactive)

## CCOC(=O)CCC(NC(=O)c1ccc(Nc2nc3cc(C(F)(F)F)ccc3nc2C(=O)OCC)cc1)C(=O)OCC (centres undefined)
786-0
  GI50: 2.44 µM (inactive)
NCI/ADR-RES
  GI50: 12.2 µM (inactive)
SK-MEL-2
  GI50: 14.1 µM (inactive)
MDA-MB-435
  GI50: 6.87 µM (inactive)
EKVX
  GI50: 15.9 µM (inactive)
DU-145
  GI50: 78.9 µM (inactive)
T47D
  GI50: 6.25 µM (inactive)
SR
  GI50: > 100 µM (inactive)
RPMI-8226
  GI50: 24.9 µM (inactive)
MCF7
  GI50: > 10 µM (inactive)
NCI-H23
  GI50: 16 µM (inactive)
MDA-N
  GI50: 6.9 µM (inactive)
NCI-H522
  GI50: 11.2 µM (inactive)

## C/C1=C\[C@@H](C)C[C@@H](C)OC(=O)[C@@H](C)NC(=O)[C@H](Cc2ccc(O)c(Br)c2)N(C)C(=O)CNC(=O)[C@H](C)C1
786-0
  GI50: < 0.0136 µM (active)
NCI/ADR-RES
  GI50: 0.0366 µM (active)
A498
  GI50: < 0.0106 µM (active)
MDA-MB-435
  GI50: < 0.01 µM (active)
SNB-75
  GI50: < 0.01 µM (active)
EKVX
  GI50: 0.117 µM (active)
TK-10
  GI50: < 0.0157 µM (active)
DU-145
  GI50: 0.363 µM (active)
T47D
  GI50: 0.126 µM (active)
RPMI-8226
  GI50: < 0.01 µM (active)
Malme-3M
  GI50: 0.0328 µM (active)
MCF7
  GI50: 0.182 µM (active)
Hs-578T
  GI50: < 0.0136 µM (active)
MDA-N
  GI50: < 0.0304 µM (active)
NCI-H522
  GI50: < 0.01 µM (active)

## CN1CC(c2ccccc2)N(CCCCN2CC(c3ccccc3)N(C)CC2c2ccccc2)CC1c1ccccc1 (centres undefined)
786-0
  GI50: 73.5 µM (inactive)
NCI/ADR-RES
  GI50: 53.8 µM (inactive)
A498
  GI50: 36 µM (inactive)
SK-MEL-2
  GI50: 30.9 µM (inactive)
MDA-MB-435
  GI50: 36.1 µM (inactive)
SNB-75
  GI50: 29.4 µM (inactive)
EKVX
  GI50: 59 µM (inactive)
TK-10
  GI50: 54.1 µM (inactive)
DU-145
  GI50: 36.2 µM (inactive)
SR
  GI50: 68.5 µM (inactive)
Malme-3M
  GI50: 31.7 µM (inactive)
MCF7
  GI50: 68.7 µM (inactive)
Hs-578T
  GI50: 73.1 µM (inactive)
MDA-N
  GI50: 32.1 µM (inactive)
NCI-H226
  GI50: 95.7 µM (inactive)

## COc1ccc(-c2cc(O)c3c(C)cc(C)nc3n2)cc1
NCI/ADR-RES
  GI50: 33.4 µM (inactive)
A498
  GI50: 30.5 µM (inactive)
SK-MEL-2
  GI50: 43.1 µM (inactive)
EKVX
  GI50: 45.2 µM (inactive)
TK-10
  GI50: 25.1 µM (inactive)
DU-145
  GI50: 48.4 µM (inactive)
T47D
  GI50: 28.2 µM (inactive)
RPMI-8226
  GI50: 18 µM (inactive)
Malme-3M
  GI50: 29 µM (inactive)
MCF7
  GI50: 15.3 µM (inactive)
NCI-H23
  GI50: 28.6 µM (inactive)
Hs-578T
  GI50: 27.7 µM (inactive)
NCI-H226
  GI50: 35 µM (inactive)
NCI-H522
  GI50: 38.1 µM (inactive)

## Nc1nccc2c1ncn2[C@H]1C[C@H](O)[C@@H](CO)O1
NCI/ADR-RES
  GI50: > 100 µM (inactive)
A498
  GI50: > 100 µM (inactive)
SK-MEL-2
  GI50: > 100 µM (inactive)
MDA-MB-435
  GI50: > 100 µM (inactive)
SNB-75
  GI50: > 100 µM (inactive)
TK-10
  GI50: > 100 µM (inactive)
DU-145
  GI50: > 100 µM (inactive)
T47D
  GI50: > 100 µM (inactive)
SR
  GI50: > 100 µM (inactive)
RPMI-8226
  GI50: > 100 µM (inactive)
Malme-3M
  GI50: > 100 µM (inactive)
MCF7
  GI50: > 100 µM (inactive)
NCI-H23
  GI50: > 100 µM (inactive)
Hs-578T
  GI50: > 100 µM (inactive)
MDA-N
  GI50: > 100 µM (inactive)
NCI-H226
  GI50: > 100 µM (inactive)

## O=c1[nH]c2ccccc2n1CCCN1CCC(n2c(=O)[nH]c3cc(Cl)ccc32)CC1 [DOMPERIDONE]
786-0
  GI50: 14.4 µM (inactive)
NCI/ADR-RES
  GI50: 23.3 µM (inactive)
A498
  GI50: 23 µM (inactive)
SK-MEL-2
  GI50: 19.2 µM (inactive)
MDA-MB-435
  GI50: 16.2 µM (inactive)
EKVX
  GI50: 22.8 µM (inactive)
TK-10
  GI50: 20.2 µM (inactive)
DU-145
  GI50: 19 µM (inactive)
T47D
  GI50: 16.3 µM (inactive)
RPMI-8226
  GI50: 20.1 µM (inactive)
Malme-3M
  GI50: 17.5 µM (inactive)
MCF7
  GI50: 18 µM (inactive)
NCI-H23
  GI50: 17.3 µM (inactive)
Hs-578T
  GI50: 19.6 µM (inactive)
MDA-N
  GI50: 15.8 µM (inactive)
NCI-H226
  GI50: 24 µM (inactive)
NCI-H522
  GI50: 15.4 µM (inactive)

— ChEMBL document CHEMBL1201862, “PubChem BioAssay data set” (2004)
